For one series, the system named is APEC serotype O78. Here is the method:
The efficacy of GIs was assessed using commercial broiler chickens (n = 6/group). […] GI compounds (ChemBridge, San Diego, CA) dissolved in dimethyl sulfoxide (DMSO) were administered orally using a syringe, twice a day, from day 4 (1 day before APEC infection) to day 8 (3 days postinfection [dpi]). The dose of each GI is described in Table S1. […] Chickens that were infected and vehicle-treated (positive control [PC]) and noninfected and nontreated (negative control [NC]) were included as controls. On day 5, chickens were infected subcutaneously (s.c.) with rifampin-resistant (Rif^r) APEC serotype O78 ([18]) (1 × 10^7 CFU/chicken). […] To prepare the APEC inoculum for infection, Rif^r APEC O78 (50 μg/ml rifampin) was grown to logarithmic phase in LB medium, washed twice with phosphate-buffered saline (PBS), and adjusted to an optical density at 600 nm (OD600) of 0.1 (5 × 10^7 CFU/ml). The clinical signs and mortality were recorded until 7 dpi. Chickens that died during this period were necropsied on the same day, lesions in internal organs (liver, heart, lung, and air sacs) were scored as described previously ([63], [71]), and the APEC loads were quantified in internal organs (liver, heart, lung, and kidney) by plating the tissue homogenates on MacConkey agar plates containing 50 μg/ml rifampin ([18]). At 7 dpi (day 12), all live birds were euthanized, lesions were scored, and the APEC loads in internal organs were quantified as described above. The body weight of chickens was measured before GI treatment (day 3) and at the day of necropsy (day 12).

Another series has as its system APEC. In words: microbe, parasite or virus in culture. The class given is cell-based, Escherichia coli. The note with it: Escherichia coli.
The subject of a further series is APEC O78. On the set-up: method as in PMID 30333507. The note with it: cited from earlier work.

The source of these data is publication PMC8557866, “Novel Small Molecule Growth Inhibitor Affecting Bacterial Outer Membrane Reduces Extraintestinal Pathogenic Escherichia coli (ExPEC) Infection in Avian Model” (Microbiology Spectrum, 2021).

≈ marks a conversion by molar mass, not a printed value.

`CC(=O)OC(C(Br)C(=O)c1ccc([N+](=O)[O-])cc1)C(Cl)(Cl)Cl` (centres unmarked) [GI-10]: in the series with APEC serotype O78 (efficacy trial, oral), the “Mean APEC load, Heart” value amounted to 3.9 Log CFU/g tissues; the “Mean APEC load, Kidney” value was 3.1 Log CFU/g tissues; the “Mean APEC load, Liver” value is given as 3.9 Log CFU/g tissues; the “Mean APEC load, Lung” value is listed as 3.7 Log CFU/g tissues. Further, in the series on APEC serotype O78 (efficacy trial, oral), the “Mean lesion score in Air sacs” value stood at 1.7, the “Mean lesion score in Heart” value turned out to be 2.2, the “Mean lesion score in Liver” value was found to be 1.3 and the “Mean lesion score in Lung” value is recorded as 1. Besides, the Survival of chickens result in the series with APEC serotype O78 (efficacy trial, oral, P ≤ 0.1, log rank test) is given as “prolonged the survival”. For the same compound, the Cumulative lesion score with APEC serotype O78 (efficacy trial, oral, PC 6.2) is on record as 6.2. Further, the “Mortality reduction compared to PC group” value with APEC serotype O78 (efficacy trial, oral, PC mortality 58.3%) is given as 41.7%. Besides, in the series with APEC serotype O78 (efficacy trial, oral, vs PC), the “% reduction in severity, Air sacs lesions” value is −17.6%; the “% reduction in severity, Heart lesions” value is listed as −4%; the “% reduction in severity, Liver lesions” value amounted to 20%; the “% reduction in severity, Lung lesions” value was 0%. For the same compound, in the series on APEC serotype O78 (efficacy trial, oral, vs PC), the “log reduction in APEC load, Heart” value turned out to be 1.0 Log CFU/g tissues; the “log reduction in APEC load, Kidney” value is listed as 2.4 Log CFU/g tissues; the “log reduction in APEC load, Liver” value is on record as 0.8 Log CFU/g tissues; the “log reduction in APEC load, Lung” value is on record as 1.4 Log CFU/g tissues. Further, the “BWG (body weight gain)” value with APEC serotype O78 (in vivo) is 220.8±38.9. In the series on APEC, the MBC was determined as 50 µM (≈ 21.7 µg/mL) and the MIC worked out at 25 µM (≈ 10.8 µg/mL). For the same compound, the MIC in the series with APEC O78 was 25 µM (≈ 10.8 µg/mL).
